Laboratory results: PubChem BioAssay (NCI)
“And” between values parts separate entries of the source, which are not always exact repeats. Equal entries are not always repeated.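 All cell lines were grown in 96-well plates and treated with compound for 48 hours. At the GI50, growth is halved. TGI denotes the concentration required for complete inhibition of growth.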

Key:
Assay in all cases: NCI anticancer screen, dose series, 48 h
UO-31 renal = tested on: UO-31 renal
HOP-62 NSCLC = tested on: HOP-62 NSCLC
EKVX NSCLC = tested on: EKVX NSCLC
SN12C renal = tested on: SN12C renal
RXF 393 renal = tested on: RXF 393 renal
LOX IMVI melanoma = tested on: LOX IMVI melanoma
NCI-H522 lung = tested on: NCI-H522 lung
A498 renal = tested on: A498 renal
CCRF-CEM leukemia = tested on: CCRF-CEM leukemia
DLD-1 colon = tested on: DLD-1 colon

| SMILES | GI50 (UO-31 renal) | TGI (UO-31 renal) | GI50 (HOP-62 NSCLC) | TGI (HOP-62 NSCLC) | GI50 (EKVX NSCLC) | TGI (EKVX NSCLC) | GI50 (SN12C renal) | TGI (SN12C renal) [µM] | GI50 (RXF 393 renal) | TGI (RXF 393 renal) | GI50 (LOX IMVI melanoma) | TGI (LOX IMVI melanoma) | GI50 (NCI-H522 lung) | TGI (NCI-H522 lung) [µM] | GI50 (A498 renal) | TGI (A498 renal) | GI50 (CCRF-CEM leukemia) | TGI (CCRF-CEM leukemia) | TGI (DLD-1 colon) [µM] |
| --- | --- | --- | --- | --- | --- | --- | --- | --- | --- | --- | --- | --- | --- | --- | --- | --- | --- | --- | --- |
| O=C(NCc1cccnc1)c1ccc([N+](=O)[O-])o1 | 2.83 µM | > 14.7 µM | 1.3 µM | 4.79 µM | 13.3 µM | > 32.5 µM | 1.19 µM | 4.49 | 1.15 µM | 5.12 µM | 1.2 µM | 6.58 µM | 0.141 µM | 0.602 | 3.25 µM | 9.02 µM | 14.5 µM | > 32.5 µM |  |
| Oc1ccc(/C=N/Nc2nnc(N/N=C/c3ccc(O)cc3O)c3ccccc23)c(O)c1 | 0.282 µM | 3.92 µM | 0.509 µM | 0.793 µM and 2.02 µM | 0.349 µM |  | 0.507 µM | 6.72 | 0.519 µM | 2.4 µM | 0.277 µM | 0.871 µM and 1.5 µM | 0.253 µM | 0.799 | 1.33 µM | 3.51 µM | 0.28 µM | 0.783 µM and 5.49 µM |  |
| N#Cc1c(N)nc(N2CCOCC2)c(C#N)c1-c1ccc(Cl)cc1Cl | 3.26 µM | 15.8 µM | 28 µM | 91.6 µM | 20.1 µM | 64.3 µM | 16.1 µM | 43.3 | 5.67 µM | 38.4 µM | 16.7 µM | 34.2 µM | 4.77 µM | 18.4 | 2.68 µM | 11.1 µM | 23.2 µM | 75 µM |  |
| COc1cc2nccc(Oc3ccc(NC(=O)C4(C(=O)Nc5ccc(F)cc5)CC4)cc3)c2cc1OC | 4.3 µM and 2.33 µM | > 10 µM and 12.7 µM | > 10 µM and 5.6 µM | > 45.3 µM | > 10 µM and 6.98 µM | > 10 µM and 97.3 µM | 3.97 µM and 1.02 µM | > 54.2 | > 10 µM and 2.17 µM | > 10 µM and 6.93 µM | 6.11 µM and 2.61 µM | > 10 µM and 15.2 µM | > 10 µM and 4.28 µM | > 45.3 | 1.2 µM and 0.429 µM | > 10 µM and 3.43 µM | > 10 µM and 3.65 µM | > 100 µM |  |
| O=C1COc2c(CCNCCN(C(=O)CCNCCc3ccc(Cl)c(Cl)c3)C3CCCCC3)ccc(O)c2N1 | 16 µM | 31 µM | 15.3 µM | 32.7 µM | 15.4 µM | 30 µM | 14.7 µM | 30.3 | 14.8 µM | 30.7 µM | 15.6 µM | 30.2 µM | 15.2 µM | 32.3 | 13.9 µM | 28.4 µM | 11 µM | 27.6 µM |  |
| CC(=O)Nc1ccc(C(=O)NN2C(=O)CSC2c2ccccc2)cc1 (stereo unspecified) |  | > 100 µM |  | > 100 µM |  | > 100 µM |  | > 100 |  | > 100 µM |  |  |  |  |  | > 100 µM |  | > 100 µM |  |
| O=C1OC(c2ccccc2)=N/C1=C\c1ccc(N(CCCl)CCCl)cc1 |  | > 100 µM |  | > 100 µM |  | > 100 µM |  | > 100 |  | > 100 µM |  | > 100 µM |  | > 95.7 |  | > 100 µM |  | > 100 µM |  |
| O=C(COC(=O)[C@H](C[Se][Se]C[C@H](NC(=O)c1ccc(Br)cc1F)C(=O)OCC(=O)c1ccc(F)cc1)NC(=O)c1ccc(Br)cc1F)c1ccc(F)cc1 | 1.11 µM | 2.79 µM | 0.654 µM | 2.24 µM | 0.517 µM | 1.52 µM | 1.27 µM | 2.98 | 0.422 µM | 1.5 µM | 1.48 µM | 3.67 µM | 2.2 µM | 4.38 | 0.306 µM | 1.04 µM |  |  |  |
| CC1=CC(=O)N2[C@H](OC[C@@H]2C(C)C)O1 |  | > 100 µM |  | > 100 µM |  |  |  | > 100 |  | > 100 µM |  |  |  | > 100 |  |  |  | > 100 µM | > 100 |
| CCn1c(SC)nnc1-c1cc2c([nH]c3ccccc32)c(-c2cccc(O)c2)n1 | 1.94 µM | 15.8 µM | 2.87 µM | 15.8 µM | 3.02 µM | 26.2 µM | 4.44 µM | 51.4 | 1.14 µM | 3.18 µM | 2.51 µM | 29.1 µM | 1.06 µM | 11.8 | 1.42 µM | 10.9 µM | 1.57 µM | > 100 µM |  |
| COc1cccc2c(Nc3ccc(C(=O)NCCN4CCNCC4)cc3)cc(-c3ccccc3)nc12 | 49.4 µM | > 100 µM | > 100 µM | > 100 µM | > 100 µM | > 100 µM | 50.7 µM | > 100 | > 100 µM | > 100 µM | 20.6 µM | 45.9 µM | 15.8 µM | 30.5 | > 100 µM | > 100 µM | 30.1 µM | 91.7 µM |  |
| Cn1c(=O)c(-c2c(Cl)cccc2Cl)cc2cnc(Nc3ccc(N4CCOCC4)cc3)nc21 | 2.29 µM | 6.66 µM | < 0.01 µM | 0.124 µM | 0.798 µM | > 30.9 µM | 0.129 µM | 4.65 | 1.36 µM | 3.86 µM | 0.178 µM | 1.31 µM | 0.0202 µM | 0.42 | < 0.0433 µM | 0.14 µM | 0.0272 µM | 0.332 µM |  |
| CC(=O)OCC1OC(OC(C)=O)C(NC#N)C(OC(C)=O)C1OC(C)=O (stereo unspecified) |  | > 100 µM |  | > 100 µM |  |  |  | > 100 |  | > 100 µM |  | > 100 µM |  | > 100 |  | > 100 µM |  | > 100 µM | > 100 |
| COc1cc([C@H]2c3cc(O)c(OC)cc3C[C@]3(O)[C@@H]2CO[C@@H]3O)ccc1O |  | > 100 µM |  | > 100 µM |  | > 100 µM |  | > 100 |  |  |  | > 100 µM |  | > 100 |  | > 100 µM |  | > 100 µM |  |
| Cc1cc2c(SCc3ccccc3Cl)nc(N)nc2nc1C |  | > 100 µM |  | > 100 µM |  | > 100 µM |  | > 100 |  | > 100 µM |  | > 100 µM |  | > 100 |  | > 100 µM |  | > 100 µM |  |
| O=C1C(=O)c2c(ccc3ccccc23)-c2ccccc21 | 2.39 µM | > 100 µM | 1.9 µM | 4.56 µM | 1.98 µM | 5.39 µM | 1.6 µM | 3.31 | 1.68 µM | 3.22 µM | 1.38 µM | 3.93 µM | 1.32 µM | 3.13 | 10.4 µM | 26 µM | 2.17 µM | > 100 µM |  |
